Data: patent US8476302B2, “α-ketoamide derivatives useful endothelial lipase inhibitors” (Janssen Pharmaceutica N.V., priority 2010, dated 2013)
Several values for one entry are separate records, joined by “and”; a condition that tells them apart may be missing. Equal values may be shown once.

Tests used:
Mouse EL = target: T1, Mouse EL (Mus musculus, UniProt Q9WVG5); experiment: Endothelial Lipase Assay, cell surface lipase activity (mouse); format: cell-based; conditions: PLA1 substrate 10 μM, fluorescence reaction rate, several values in a cell are repeat determinations
T1 construct: host or cells: not described for mouse EL
T1 sequence (Q9WVG5 21-500): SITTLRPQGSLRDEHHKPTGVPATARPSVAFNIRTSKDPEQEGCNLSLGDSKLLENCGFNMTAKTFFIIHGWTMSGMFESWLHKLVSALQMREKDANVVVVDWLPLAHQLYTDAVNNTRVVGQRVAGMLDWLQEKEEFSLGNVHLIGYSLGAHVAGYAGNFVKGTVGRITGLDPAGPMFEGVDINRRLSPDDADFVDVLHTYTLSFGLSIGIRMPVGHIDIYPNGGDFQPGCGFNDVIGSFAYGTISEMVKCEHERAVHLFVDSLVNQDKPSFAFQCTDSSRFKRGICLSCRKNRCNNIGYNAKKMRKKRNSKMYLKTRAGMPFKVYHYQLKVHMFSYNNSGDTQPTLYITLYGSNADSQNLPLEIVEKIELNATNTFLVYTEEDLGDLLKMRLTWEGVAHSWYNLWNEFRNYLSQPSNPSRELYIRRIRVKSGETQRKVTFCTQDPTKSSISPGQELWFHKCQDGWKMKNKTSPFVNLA
Experimental: (§1) Endothelial Lipase Assay (Human/Mouse)
(§2) To assay for cell surface lipase activity, cells expressing human endothelial lipase (EL) or LPL were plated in CellBIND® 384-well plates (Corning, Lowell, Mass.) in 25 μL serum free medium at a density of 2000 cells/well. After 18-24 hours incubation at 37° C., the medium was removed and replaced with 15 μL assay buffer [Hank's Buffered Saline Solution with 25 mM HEPES pH 7.2] and 15 μL PLA1 for a final concentration of 10 μM using a Multidrop reagent dispenser. Fluorescence signal was monitored for 30 min at 37° C. on a Safire II plate reader in kinetic mode (60 cycles, kinetic interval: 30 seconds) with an excitation wavelength of 490 nm and an emission wavelength of 515 nm. Linear regression of the fluorescence intensity collected from 480 to 1500 seconds was used to calculate the reaction rate (the slope) and the slopes were used to calculate IC50 values where appropriate. The amount of BODIPY-labeled product generated was calculated at the 30 min time point as determined from standard curve analysis of purified BODIPY FL C5. In all studies using the inhibitor Ebelactone B, consistent results were obtained when it was dissolved as a stock in DMSO, immediately before use.

[1] = target: T2, human endothelial lipase (EL) (Homo sapiens, UniProt Q9Y5X9); experiment: Endothelial Lipase Assay, cell surface lipase activity (human); format: cell-based; conditions: cells expressing human EL, PLA1 substrate 10 μM, fluorescence reaction rate; several values in a cell are repeat determinations
T2 construct: host or cells: cells expressing human endothelial lipase
T2 sequence (Q9Y5X9 21-500): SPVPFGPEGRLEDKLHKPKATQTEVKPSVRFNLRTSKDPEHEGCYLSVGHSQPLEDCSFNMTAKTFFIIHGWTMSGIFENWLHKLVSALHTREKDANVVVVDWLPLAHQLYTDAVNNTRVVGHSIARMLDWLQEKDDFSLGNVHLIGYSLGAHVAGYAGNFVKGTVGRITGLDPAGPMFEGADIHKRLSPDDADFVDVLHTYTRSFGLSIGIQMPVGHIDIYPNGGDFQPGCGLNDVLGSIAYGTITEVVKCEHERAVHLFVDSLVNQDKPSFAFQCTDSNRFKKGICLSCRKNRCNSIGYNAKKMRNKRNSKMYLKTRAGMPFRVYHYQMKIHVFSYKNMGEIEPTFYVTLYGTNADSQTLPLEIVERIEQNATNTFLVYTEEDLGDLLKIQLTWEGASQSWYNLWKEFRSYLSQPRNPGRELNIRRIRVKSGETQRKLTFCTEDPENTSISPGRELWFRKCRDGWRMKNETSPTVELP
Experimental: as §1, §2

IC50 (Mouse EL)	IC50 [1]	Compound
187 nM	471 nM	O=C(CCCCCCc1ccccc1)C(=O)NCc1nnc(-c2ccc(OCc3cccc(F)n3)cc2)o1 [Compound 121]
182 nM	288 nM	CC(C)(C)OC(=O)N(Cc1cccnc1)c1ccc(-c2nnc(CNC(=O)C(=O)CCCCCCc3ccccc3)o2)cc1 [Compound 123]
2930 nM	3610 nM	O=C(CCCCCCc1ccccc1)C(=O)NCc1nnc(-c2ccc(NCc3cccnc3)cc2)o1 [Compound 124]
993 nM	2580 nM	CC(C)(C)OC(=O)c1cccc(COc2ccc(-c3nnc(CNC(=O)C(=O)CCCCCCc4ccccc4)o3)cc2)c1 [Compound 125]
242 nM	398 nM	O=C(CCCCCCc1ccccc1)C(=O)NCc1nnc(-c2ccc(OCc3cccc(C(=O)O)c3)cc2)o1 [Compound 126]
281 nM	308 nM	O=C(CCCCCCc1ccc(F)nc1)C(=O)NCc1nnc(-c2ccc(Oc3ccccc3)cc2)o1 [Compound 127]
87 nM	129 nM	O=C(CCCCCCc1ccccc1)C(=O)NCc1nnc(-c2ccc(OCc3cccc(F)c3)cc2)s1 [Compound 128, N-((5-(4-((3-fluorobenzyl)oxy)phenyl)-1,3,4-thiadiazol-2-yl)methyl)-2-oxo-8-phenyloctanamide]
264 nM	325 nM	O=C(CCCCCCc1ccccc1)C(=O)NCc1nnc(-c2ccc(OCc3ccccc3)cc2)s1 [Compound 129]
80 nM	111 nM	O=C(CCCCCCc1ccccc1)C(=O)NCc1nnc(-c2ccc(Oc3ccccc3)cc2)s1 [Compound 130]
176 nM	386 nM	O=C(CCCCCOc1cc(F)cc(F)c1)C(=O)NCc1nnc(-c2ccc(Oc3ccccc3)cc2)s1 [Compound 133]
243 nM	604 nM	O=C(CCCCCOc1cccc(Cl)c1)C(=O)NCc1nnc(-c2ccc(Oc3ccccc3)cc2)s1 [Compound 134]
406 nM	595 nM	O=C(CCCCCCc1ccc(C(F)(F)F)nc1)C(=O)NCc1nnc(-c2ccc(Oc3ccccc3)cc2)o1 [Compound 136]
37 nM	93 nM	COC(=O)c1cccc(COc2ccc(-c3nnc(CNC(=O)C(=O)CCCCCCc4ccccc4)s3)cc2)c1 [Compound 137]
58 nM and 79 nM	55 nM and 108 nM	O=C(CCCCCCc1ccccc1)C(=O)NCc1nnc(-c2ccc(OCc3cccnc3)cc2)s1 [Compound 138]
42 nM	71 nM	O=C(CCCCCCc1ccccc1)C(=O)NCc1nnc(-c2ccc(OCc3ccccn3)cc2)s1 [Compound 139]
29 nM	32 nM	O=C(CCCCCCc1ccccc1)C(=O)NCc1nnc(-c2ccc(OCc3ccncc3)cc2)s1 [Compound 140, 2-oxo-8-phenyl-N-((5-(4-(pyridin-4-ylmethoxy)phenyl)-1,3,4-thiadiazol-2-yl)methyl)octanamide]
45 nM	101 nM	COC(=O)c1ccc(COc2ccc(-c3nnc(CNC(=O)C(=O)CCCCCCc4ccccc4)s3)cc2)o1 [Compound 141]
897 nM	1580 nM	NC(=O)c1cncc(CCCCCCC(=O)C(=O)NCc2nnc(-c3ccc(Oc4ccccc4)cc3)o2)c1 [Compound 142]
11100 nM	7690 nM	O=C(CCCCC=Cc1ccccc1)C(=O)NCc1nnc(-c2ccc(Oc3ccccc3)cc2)o1 [Compound 143]
249 nM	421 nM	N#Cc1cccc(COc2ccc(-c3nnc(CNC(=O)C(=O)CCCCCCc4ccccc4)s3)cc2)c1 [Compound 144]
168 nM	312 nM	O=C(CCCCCCc1ccccc1)C(=O)NCc1nnc(-c2ccc(OCc3ccccc3F)cc2)s1 [Compound 145]
224 nM	2320 nM	O=C(CCCCCCc1ccccc1)C(=O)NCc1nnc(-c2ccc(OCc3cc(F)cc(F)c3)cc2)s1 [Compound 146]
14700 nM	12300 nM	O=C(CCCCCNc1ncccn1)C(=O)NCc1nnc(-c2ccccc2)o1 [Compound 148]

IC50 (Mouse EL)	IC50 [1]	Compound
3400 nM	4250 nM	CN(C)CCNC(=O)c1ccc(-c2nnc(CNC(=O)C(=O)CCCCCCc3ccccc3)o2)cc1 [Compound 149]
48 nM	92 nM	CN(C)C(=O)c1cccc(COc2ccc(-c3nnc(CNC(=O)C(=O)CCCCCCc4ccccc4)s3)cc2)c1 [Compound 150]
661 nM	712 nM	O=C(CCCCCCc1ccccc1)C(=O)NCc1nnc(-c2ccc(OCc3cccc(F)n3)cc2)s1 [Compound 151]
207 nM and 48 nM	115 nM and 42 nM	O=C(CCCCCCc1ccccc1)C(=O)NCc1nnc(-c2ccc(OCc3ccnc(F)c3)cc2)s1 [Compound 152]
47 nM	36 nM	Cc1ncsc1CCCCCCC(=O)C(=O)NCc1nnc(-c2ccc(OCc3cccc(F)c3)cc2)s1 [Compound 154, N-((5-(4-((3-fluorobenzyl)oxy)phenyl)-1,3,4-thiadiazol-2-yl)methyl)-8-(4-methylthiazol-5-yl)-2-oxooctanamide]
383 nM	397 nM	O=C(CCCCCCc1ccccc1)C(=O)NCc1nnc(-c2ccc(OCc3cc[n+]([O-])cc3)cc2)s1 [Compound 156]
1280 nM	511 nM	CC(=O)Nc1ccc(CCCCCCC(=O)C(=O)NCc2nnc(-c3ccc(OCc4cccc(F)c4)cc3)s2)cn1 [Compound 157]
174 nM	240 nM	O=C(CCCCCCc1ccc(F)nc1)C(=O)NCc1nnc(-c2ccc(OCc3ccncc3)cc2)s1 [Compound 159]
37 nM	93 nM	O=C(CCCCCCc1ccccc1)C(=O)NCc1nnc(-c2ccc(OCc3ccncc3F)cc2)s1 [Compound 161]
202 nM	1340 nM	O=C(CCCCCCc1ccccc1)C(=O)NCc1nnc(-c2ccc(OCc3cccc(Br)n3)cc2)s1 [Compound 162]
236 nM	974 nM	N#Cc1cccc(COc2ccc(-c3nnc(CNC(=O)C(=O)CCCCCCc4ccccc4)s3)cc2)n1 [Compound 163]
232 nM	751 nM	O=C(CCCCCCc1ccccc1)C(=O)NCc1nnc(-c2ccc(OCc3cccc(Cl)n3)cc2)s1 [Compound 164]
48 nM	48 nM	O=C(CCCCCCc1ccc(F)nc1)C(=O)NCc1nnc(-c2ccc(OCc3cccc(F)c3)cc2)s1 [Compound 165]
479 nM	809 nM	Cc1ncsc1CCCCCCC(=O)C(=O)NCc1nnc(-c2ccc(OCc3ccncc3)cc2)s1 [Compound 166]
217 nM	360 nM	O=C(CCCCCCc1ccc(F)nc1)C(=O)NCc1nnc(-c2ccc(OCc3ccccn3)cc2)s1 [Compound 167]
64 nM	107 nM	O=C(CCCCCCc1ccc(F)nc1)C(=O)NCc1nnc(-c2ccc(OCc3ccnc(F)c3)cc2)s1 [Compound 168]
62 nM	85 nM	O=C(CCCCCCc1ccc(F)nc1)C(=O)NCc1nnc(-c2ccc(OCc3ccnc(Cl)c3)cc2)s1 [Compound 169]
14 nM	16 nM	COC(=O)c1cccc(COc2ccc(-c3nnc(CNC(=O)C(=O)CCCCCCc4ccc(F)nc4)s3)cc2)c1 [Compound 170]
17 nM	37 nM	O=C(CCCCCCc1ccccc1)C(=O)NCc1nnc(-c2ccc(OCc3ccnc(Cl)c3)cc2)s1 [Compound 173]
51 nM	78 nM	Cc1cc(COc2ccc(-c3nnc(CNC(=O)C(=O)CCCCCCc4ccccc4)s3)cc2)ccn1 [Compound 174]
27000 nM	27900 nM	O=C(CCCCCNc1ncccn1)C(=O)NCc1nnc(-c2ccc(OCc3ccccc3)cc2)o1 [Compound 176]
7320 nM	11600 nM	O=C(CCCCCCc1ccccc1)C(=O)NCc1nnc(-c2ccncc2)o1 [Compound 178]
